Patent US10787452B2 (Vertex Pharmaceuticals Incorporated, priority 2012, dated 2020)

System: HCT116 colorectal cancer cells
Assay: Cisplatin sensitization assay (96 h cell viability MTS);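 further: compound concentration needed to lower the Cisplatin-alone IC50 by a set fold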
Assay type: cell-based
Conditions: 96 h MTS, compound plus Cisplatin
Summary of the method: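 Viability is measured with MTS reagent, added after 96 h and developed for 1 h at 37° C. Beforehand, cells receive compound and cisplatin simultaneously in a concentration matrix of 2-fold serial dilutions starting at 10 μM final.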

Compound | Cisplatin Sensitization Assay
CN1CCN(S(=O)(=O)C2CCN(c3c(F)cncc3NC(=O)c3c(N)nn4cc(F)cnc34)CC2)CC1 [I-N-166, 2-amino-6-fluoro-N-(5-fluoro-4-(4-((4-methylpiperazin-1-yl)sulfonyl)piperidin-1-yl)pyridin-3-yl)pyrazolo[1,5-a]pyrimidine-3-carboxamide] | +++ (Compounds with a Cisplatin sensitization value of <0.02 μM are marked with “+++.”)
Nc1nn2cc(F)cnc2c1C(=O)Nc1cncc(F)c1N1CCC(OCCN2CCCC2)CC1 [I-N-167, 2-amino-6-fluoro-N-(5-fluoro-4-(4-(2-(pyrrolidin-1-yl)ethoxy)piperidin-1-yl)pyridin-3-yl)pyrazolo[1,5-a]pyrimidine-3-carboxamide] | +++ (Compounds with a Cisplatin sensitization value of <0.02 μM are marked with “+++.”)
Nc1nn2cc(F)cnc2c1C(=O)Nc1cncc(F)c1N1CCN(C(=O)C2CNC2)CC1 [I-N-168, 2-amino-N-(4-(4-(azetidine-3-carbonyl)piperazin-1-yl)-5-fluoropyridin-3-yl)-6-fluoropyrazolo[1,5-a]pyrimidine-3-carboxamide] | + (Compounds with a Cisplatin sensitization value >0.2 μM but <5 μM are marked with “+.”)
Nc1nn2cc(F)cnc2c1C(=O)Nc1cncc(F)c1N1CCC(S(=O)(=O)N2CCC2)CC1 [I-N-169, 2-amino-N-(4-(4-(azetidin-1-ylsulfonyl)piperidin-1-yl)-5-fluoropyridin-3-yl)-6-fluoropyrazolo[1,5-a]pyrimidine-3-carboxamide] | +++ (Compounds with a Cisplatin sensitization value of <0.02 μM are marked with “+++.”)
Nc1nn2cc(F)cnc2c1C(=O)Nc1cnccc1N1CCC(S(=O)(=O)N2CCOCC2)CC1 [I-N-170, 2-amino-6-fluoro-N-(4-(4-(morpholinosulfonyl)piperidin-1-yl)pyridin-3-yl)pyrazolo[1,5-a]pyrimidine-3-carboxamide] | +++ (Compounds with a Cisplatin sensitization value of <0.02 μM are marked with “+++.”)
CN1CCN(CC2CCN(c3c(F)cncc3NC(=O)c3c(N)nn4cc(F)cnc34)CC2)CC1=O [I-N-171, 2-amino-6-fluoro-N-(5-fluoro-4-(4-((4-methyl-3-oxopiperazin-1-yl)methyl)piperidin-1-yl)pyridin-3-yl)pyrazolo[1,5-a]pyrimidine-3-carboxamide] | +++ (Compounds with a Cisplatin sensitization value of <0.02 μM are marked with “+++.”)
Nc1nn2cc(F)cnc2c1C(=O)Nc1cncc(F)c1N1CCN(C(=O)C2CNCCO2)CC1 (stereo not shown) [I-N-172, 2-amino-6-fluoro-N-(5-fluoro-4-(4-(morpholine-2-carbonyl)piperazin-1-yl)pyridin-3-yl)pyrazolo[1,5-a]pyrimidine-3-carboxamide] | +++ (Compounds with a Cisplatin sensitization value of <0.02 μM are marked with “+++.”)
CN1CCCCC1C(=O)N1CCN(c2c(F)cncc2NC(=O)c2c(N)nn3cc(F)cnc23)CC1 (stereo not shown) [I-N-173, 2-amino-6-fluoro-N-(5-fluoro-4-(4-(1-methylpiperidine-2-carbonyl)piperazin-1-yl)pyridin-3-yl)pyrazolo[1,5-a]pyrimidine-3-carboxamide] | +++ (Compounds with a Cisplatin sensitization value of <0.02 μM are marked with “+++.”)
CN1CCOC(C(=O)N2CCN(c3c(F)cncc3NC(=O)c3c(N)nn4cc(F)cnc34)CC2)C1 (stereo not shown) [I-N-174, 2-amino-6-fluoro-N-(5-fluoro-4-(4-(4-methylmorpholine-2-carbonyl)piperazin-1-yl)pyridin-3-yl)pyrazolo[1,5-a]pyrimidine-3-carboxamide] | +++ (Compounds with a Cisplatin sensitization value of <0.02 μM are marked with “+++.”)
CN1CCC(S(=O)(=O)N2CCN(c3c(F)cncc3NC(=O)c3c(N)nn4cc(F)cnc34)CC2)CC1 [I-N-175, 2-amino-6-fluoro-N-(5-fluoro-4-(4-((1-methylpiperidin-4-yl)sulfonyl)piperazin-1-yl)pyridin-3-yl)pyrazolo[1,5-a]pyrimidine-3-carboxamide] | +++ (Compounds with a Cisplatin sensitization value of <0.02 μM are marked with “+++.”)
Nc1nn2cc(F)cnc2c1C(=O)Nc1cnccc1N1CCN(S(=O)(=O)C2CC2)CC1 [I-N-176, 2-amino-N-(4-(4-(cyclopropylsulfonyl)piperazin-1-yl)pyridin-3-yl)-6-fluoropyrazolo[1,5-a]pyrimidine-3-carboxamide] | +++ (Compounds with a Cisplatin sensitization value of <0.02 μM are marked with “+++.”)
Nc1nn2cc(F)cnc2c1C(=O)Nc1cnccc1N1CCN(S(=O)(=O)C2CCOCC2)CC1 [I-N-177, 2-amino-6-fluoro-N-(4-(4-((tetrahydro-2H-pyran-4-yl)sulfonyl)piperazin-1-yl)pyridin-3-yl)pyrazolo[1,5-a]pyrimidine-3-carboxamide] | +++ (Compounds with a Cisplatin sensitization value of <0.02 μM are marked with “+++.”)
CS(=O)(=O)N1CCN(c2ccncc2NC(=O)c2c(N)nn3cc(F)cnc23)CC1 [I-N-178, 2-amino-6-fluoro-N-(4-(4-(methylsulfonyl)piperazin-1-yl)pyridin-3-yl)pyrazolo[1,5-a]pyrimidine-3-carboxamide] | +++ (Compounds with a Cisplatin sensitization value of <0.02 μM are marked with “+++.”)
Nc1nn2cc(F)cnc2c1C(=O)Nc1cnccc1N1CCN(S(=O)(=O)C2CCOC2)CC1 (stereo not shown) [I-N-179, 2-amino-6-fluoro-N-(4-(4-((tetrahydrofuran-3-yl)sulfonyl)piperazin-1-yl)pyridin-3-yl)pyrazolo[1,5-a]pyrimidine-3-carboxamide] | +++ (Compounds with a Cisplatin sensitization value of <0.02 μM are marked with “+++.”)
CN1CCC[C@@H]1C(=O)N1CCN(c2c(F)cncc2NC(=O)c2c(N)nn3cc(F)cnc23)CC1 [I-N-181, (R)-2-amino-6-fluoro-N-(5-fluoro-4-(4-(1-methylpyrrolidine-2-carbonyl)piperazin-1-yl)pyridin-3-yl)pyrazolo[1,5-a]pyrimidine-3-carboxamide] | +++ (Compounds with a Cisplatin sensitization value of <0.02 μM are marked with “+++.”)
Nc1nn2cc(F)cnc2c1C(=O)Nc1cncc(F)c1N1CCN2C(=O)CC[C@@H]2C1 [I-N-182, (R)-2-amino-6-fluoro-N-(5-fluoro-4-(6-oxohexahydropyrrolo[1,2-a]pyrazin-2(1H)-yl)pyridin-3-yl)pyrazolo[1,5-a]pyrimidine-3-carboxamide] | ++ (Compounds with a Cisplatin sensitization value >0.02 μM but <0.2 μM are marked with “++.”)
CN1CCOC2(CCN(c3ccncc3NC(=O)c3c(N)nn4cc(F)cnc34)CC2)C1 [I-N-183, 2-amino-6-fluoro-N-(4-(4-methyl-1-oxa-4,9-diazaspiro[5.5]undecan-9-yl)pyridin-3-yl)pyrazolo[1,5-a]pyrimidine-3-carboxamide] | +++ (Compounds with a Cisplatin sensitization value of <0.02 μM are marked with “+++.”)
Nc1nn2cc(F)cnc2c1C(=O)Nc1cncc(F)c1N1CCC(c2nccs2)CC1 [I-N-184, 2-amino-6-fluoro-N-(5-fluoro-4-(4-(thiazol-2-yl)piperidin-1-yl)pyridin-3-yl)pyrazolo[1,5-a]pyrimidine-3-carboxamide] | ++ (Compounds with a Cisplatin sensitization value >0.02 μM but <0.2 μM are marked with “++.”)
CCN1CCCC1C(=O)N1CCN(c2c(F)cncc2NC(=O)c2c(N)nn3cc(F)cnc23)CC1 (stereo not shown) [I-N-185, 2-amino-N-(4-(4-(1-ethylpyrrolidine-2-carbonyl)piperazin-1-yl)-5-fluoropyridin-3-yl)-6-fluoropyrazolo[1,5-a]pyrimidine-3-carboxamide] | ++ (Compounds with a Cisplatin sensitization value >0.02 μM but <0.2 μM are marked with “++.”)
Nc1nn2cc(F)cnc2c1C(=O)Nc1cncc(F)c1N1CCN2C(=O)CC[C@@H]2C1 [I-N-186, (R)-2-amino-6-fluoro-N-(5-fluoro-4-(6-oxohexahydropyrrolo[1,2-a]pyrazin-2(1H)-yl)pyridin-3-yl)pyrazolo[1,5-a]pyrimidine-3-carboxamide] | +++ (Compounds with a Cisplatin sensitization value of <0.02 μM are marked with “+++.”)
Nc1nn2cc(F)cnc2c1C(=O)Nc1cncc(F)c1N1CCN(C(=O)CN2CCCC2)CC1 [I-N-187, 2-amino-6-fluoro-N-(5-fluoro-4-(4-(2-(pyrrolidin-1-yl)acetyl)piperazin-1-yl)pyridin-3-yl)pyrazolo[1,5-a]pyrimidine-3-carboxamide] | +++ (Compounds with a Cisplatin sensitization value of <0.02 μM are marked with “+++.”)
CN1CCC(S(=O)(=O)N2CCN(c3ccncc3NC(=O)c3c(N)nn4cc(F)cnc34)CC2)CC1 [I-N-188, 2-amino-6-fluoro-N-(4-(4-((1-methylpiperidin-4-yl)sulfonyl)piperazin-1-yl)pyridin-3-yl)pyrazolo[1,5-a]pyrimidine-3-carboxamide] | +++ (Compounds with a Cisplatin sensitization value of <0.02 μM are marked with “+++.”)
Nc1nn2cc(F)cnc2c1C(=O)Nc1cncc(F)c1N1CCC(N2CCOCC2)CC1 [I-N-189, 2-amino-6-fluoro-N-(5-fluoro-4-(4-morpholinopiperidin-1-yl)pyridin-3-yl)pyrazolo[1,5-a]pyrimidine-3-carboxamide] | +++ (Compounds with a Cisplatin sensitization value of <0.02 μM are marked with “+++.”)
CS(=O)(=O)C1CCN(c2ccncc2NC(=O)c2c(N)nn3cc(F)cnc23)CC1 [I-N-190, 2-amino-6-fluoro-N-(4-(4-(methylsulfonyl)piperidin-1-yl)pyridin-3-yl)pyrazolo[1,5-a]pyrimidine-3-carboxamide] | +++ (Compounds with a Cisplatin sensitization value of <0.02 μM are marked with “+++.”)
CN1CCN(C(=O)C2CCN(c3c(F)cncc3NC(=O)c3c(N)nn4cc(F)cnc34)C2)CC1 (stereo not shown) [I-N-191, 2-amino-6-fluoro-N-(5-fluoro-4-(3-(4-methylpiperazine-1-carbonyl)pyrrolidin-1-yl)pyridin-3-yl)pyrazolo[1,5-a]pyrimidine-3-carboxamide] | + (Compounds with a Cisplatin sensitization value >0.2 μM but <5 μM are marked with “+.”)
